Patent US20090304688A1, “Methods and Compositions for Increasing the Efficiency of Therapeutic Antibodies Using Gamma Delta T Cell Activators” (INNATE PHARMA S.A., priority 2006, published 2009)

Test system: γδ T lymphocytes
Experiment: In vivo amplification of γδ T lymphocytes in primates

Substance: 3-(bromomethyl)-3-butanol-1-yl-diphosphate [BrHPP]
- amplification of γδ T lymphocytes in vivo (BrHPP 90 mg/kg i.v. with IL-2 in rituximab-treated animals): efficiently and repeatedly amplified
- level and kinetics of γδ T lymphocyte response (BrHPP in rituximab-treated animals compared with BrHPP alone): at least as good as what is generally observed with BrHPP alone
